According to PubChem BioAssay (NCI):
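Interpolation was linear, between the two tested concentrations surrounding the appropriate level; five concentrations were tested over 48 hours in 96-well plates. GI50 = concentration required for 50% inhibition of growth. Definition used: TGI = concentration required for complete inhibition of growth.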

Tests used:
Test in all cases: growth of human tumour cells (NCI), 48 h
IGROV1 ovarian = test system: IGROV1 ovarian
CAKI-1 renal = test system: CAKI-1 renal
SR leukemia = test system: SR leukemia
UACC-62 melanoma = test system: UACC-62 melanoma
HOP-62 NSCLC = test system: HOP-62 NSCLC
OVCAR-8 ovarian = test system: OVCAR-8 ovarian
A549 NSCLC = test system: A549 NSCLC
HT29 colon = test system: HT29 colon
SW-620 colon = test system: SW-620 colon
UACC-257 melanoma = test system: UACC-257 melanoma
M14 melanoma = test system: M14 melanoma
SF-295 CNS = test system: SF-295 CNS
ACHN renal = test system: ACHN renal
EKVX NSCLC = test system: EKVX NSCLC
T-47D breast = test system: T-47D breast
SNB-19 CNS = test system: SNB-19 CNS
HS 578T breast = test system: HS 578T breast
OVCAR-4 ovarian = test system: OVCAR-4 ovarian
SF-268 CNS = test system: SF-268 CNS
HOP-92 NSCLC = test system: HOP-92 NSCLC
BT-549 breast = test system: BT-549 breast
OVCAR-5 ovarian = test system: OVCAR-5 ovarian
HCT-15 colon = test system: HCT-15 colon
SK-MEL-2 melanoma = test system: SK-MEL-2 melanoma
HCT-116 colon = test system: HCT-116 colon
SK-MEL-5 melanoma = test system: SK-MEL-5 melanoma
MOLT-4 leukemia = test system: MOLT-4 leukemia
OVCAR-3 ovarian = test system: OVCAR-3 ovarian
NCI-H460 lung = test system: NCI-H460 lung
TK-10 renal = test system: TK-10 renal
MDA-MB-231 breast = test system: MDA-MB-231 breast
MDA-N = test system: MDA-N
U251 CNS = test system: U251 CNS
A498 renal = test system: A498 renal
MDA-MB-435 = test system: MDA-MB-435
SK-MEL-28 melanoma = test system: SK-MEL-28 melanoma
786-0 renal = test system: 786-0 renal
NCI/ADR-RES ovarian = test system: NCI/ADR-RES ovarian
PC-3 prostate = test system: PC-3 prostate
SN12C renal = test system: SN12C renal
HL-60(TB) leukemia = test system: HL-60(TB) leukemia
KM12 colon = test system: KM12 colon
NCI-H522 lung = test system: NCI-H522 lung
K-562 leukemia = test system: K-562 leukemia
RXF 393 renal = test system: RXF 393 renal
DU-145 prostate = test system: DU-145 prostate
UO-31 renal = test system: UO-31 renal
LOX IMVI melanoma = test system: LOX IMVI melanoma
NCI-H23 lung = test system: NCI-H23 lung
MALME-3M melanoma = test system: MALME-3M melanoma
RPMI-8226 leukemia = test system: RPMI-8226 leukemia
MCF7 breast = test system: MCF7 breast
NCI-H226 lung = test system: NCI-H226 lung
CCRF-CEM leukemia = test system: CCRF-CEM leukemia
COLO 205 colon = test system: COLO 205 colon
HCC-2998 colon = test system: HCC-2998 colon
SK-OV-3 ovarian = test system: SK-OV-3 ovarian
SNB-75 CNS = test system: SNB-75 CNS
SF-539 CNS = test system: SF-539 CNS

With `O=C(O)CSc1cc(-c2ccccc2)nc2ccccc12` the TGI (IGROV1 ovarian) was > 100 µM, the TGI (CAKI-1 renal) was > 100 µM and the TGI (SR leukemia) was > 100 µM. For the same molecule, the TGI (UACC-62 melanoma) was > 100 µM, the TGI (HOP-62 NSCLC) was > 100 µM and the TGI (OVCAR-8 ovarian) was > 100 µM. For the same molecule, the TGI (A549 NSCLC) was > 100 µM, the TGI (HT29 colon) was > 100 µM and the TGI (SW-620 colon) was > 100 µM. For the same molecule, the TGI (UACC-257 melanoma) was > 100 µM, the TGI (M14 melanoma) was > 100 µM and the TGI (SF-295 CNS) was > 100 µM. For the same molecule, the TGI (ACHN renal) was > 100 µM, the TGI (EKVX NSCLC) was > 100 µM and the TGI (T-47D breast) was > 100 µM. The TGI (SNB-19 CNS) was > 100 µM, the TGI (HS 578T breast) was 61.4 µM and the TGI (OVCAR-4 ovarian) was > 100 µM. The TGI (SF-268 CNS) was > 100 µM, the TGI (HOP-92 NSCLC) was > 100 µM and the TGI (BT-549 breast) was > 100 µM. For the same molecule, the TGI (OVCAR-5 ovarian) was > 100 µM, the TGI (HCT-15 colon) was > 100 µM and the TGI (SK-MEL-2 melanoma) was > 100 µM. The TGI (HCT-116 colon) was 22 µM, the TGI (SK-MEL-5 melanoma) was > 100 µM and the TGI (MOLT-4 leukemia) was > 100 µM. The TGI (OVCAR-3 ovarian) was 49 µM, the TGI (NCI-H460 lung) was > 100 µM and the TGI (TK-10 renal) was > 100 µM. For the same molecule, the TGI (MDA-MB-231 breast) was > 100 µM, the TGI (MDA-N) was > 100 µM and the TGI (U251 CNS) was > 100 µM. The TGI (A498 renal) was 67 µM, the TGI (MDA-MB-435) was 38 µM and the TGI (SK-MEL-28 melanoma) was > 100 µM. For the same molecule, the TGI (786-0 renal) was > 100 µM, the TGI (NCI/ADR-RES ovarian) was > 100 µM and the TGI (PC-3 prostate) was > 100 µM. The TGI (SN12C renal) was > 100 µM, the TGI (HL-60(TB) leukemia) was 58.2 µM and the TGI (KM12 colon) was > 100 µM. The TGI (NCI-H522 lung) was 70.9 µM, the TGI (K-562 leukemia) was > 100 µM and the TGI (RXF 393 renal) was 94.8 µM. The TGI (DU-145 prostate) was > 100 µM, the TGI (UO-31 renal) was > 100 µM and the TGI (LOX IMVI melanoma) was > 100 µM. For the same molecule, the TGI (NCI-H23 lung) was > 100 µM and the TGI (MALME-3M melanoma) was > 100 µM.

For `[Cu+2].[O-]c1ccc2ccccc2c1N=Nc1ccccc1.[O-]c1ccc2ccccc2c1N=Nc1ccccc1`, the TGI (IGROV1 ovarian) was > 100 µM, the TGI (CAKI-1 renal) was > 100 µM and the TGI (SR leukemia) was > 100 µM. For the same molecule, the TGI (UACC-62 melanoma) was > 100 µM, the TGI (HOP-62 NSCLC) was > 100 µM and the TGI (OVCAR-8 ovarian) was > 100 µM. For the same molecule, the TGI (A549 NSCLC) was > 100 µM, the TGI (HT29 colon) was > 100 µM and the TGI (RPMI-8226 leukemia) was > 100 µM. The TGI (SW-620 colon) was > 100 µM, the TGI (UACC-257 melanoma) was > 100 µM and the TGI (M14 melanoma) was > 100 µM. For the same molecule, the GI50 (SF-295 CNS) was > 100 µM, the TGI (SF-295 CNS) was > 100 µM and the TGI (ACHN renal) was > 100 µM. For the same molecule, the GI50 (EKVX NSCLC) was > 100 µM, the TGI (EKVX NSCLC) was > 100 µM and the GI50 (T-47D breast) was > 100 µM. The TGI (T-47D breast) was > 100 µM, the TGI (SNB-19 CNS) was > 100 µM and the TGI (HS 578T breast) was > 100 µM. The TGI (OVCAR-4 ovarian) was > 100 µM, the TGI (MCF7 breast) was > 100 µM and the GI50 (SF-268 CNS) was > 100 µM. For the same molecule, the TGI (SF-268 CNS) was > 100 µM, the TGI (HOP-92 NSCLC) was > 100 µM and the TGI (BT-549 breast) was > 100 µM. For the same molecule, the TGI (OVCAR-5 ovarian) was > 100 µM, the TGI (HCT-15 colon) was > 100 µM and the TGI (SK-MEL-2 melanoma) was > 100 µM. The TGI (HCT-116 colon) was > 100 µM, the TGI (NCI-H226 lung) was > 100 µM and the TGI (SK-MEL-5 melanoma) was > 100 µM. For the same molecule, the TGI (CCRF-CEM leukemia) was > 100 µM, the TGI (MOLT-4 leukemia) was > 100 µM and the TGI (OVCAR-3 ovarian) was > 100 µM. The TGI (NCI-H460 lung) was > 100 µM, the TGI (TK-10 renal) was > 100 µM and the TGI (COLO 205 colon) was > 100 µM. The TGI (MDA-MB-231 breast) was > 100 µM, the TGI (MDA-N) was > 100 µM and the TGI (HCC-2998 colon) was > 100 µM. For the same molecule, the TGI (U251 CNS) was > 100 µM, the TGI (SK-OV-3 ovarian) was > 100 µM and the TGI (MDA-MB-435) was > 100 µM. The TGI (SNB-75 CNS) was > 100 µM, the TGI (SK-MEL-28 melanoma) was > 100 µM and the GI50 (786-0 renal) was 72.7 µM. For the same molecule, the TGI (786-0 renal) was > 100 µM, the TGI (NCI/ADR-RES ovarian) was > 100 µM and the TGI (PC-3 prostate) was > 100 µM. The TGI (SN12C renal) was > 100 µM, the TGI (HL-60(TB) leukemia) was > 100 µM and the GI50 (KM12 colon) was > 100 µM. The TGI (KM12 colon) was > 100 µM, the TGI (NCI-H522 lung) was > 100 µM and the TGI (K-562 leukemia) was > 100 µM. For the same molecule, the TGI (RXF 393 renal) was > 100 µM, the TGI (DU-145 prostate) was > 100 µM and the TGI (UO-31 renal) was > 100 µM. The TGI (NCI-H23 lung) was > 100 µM, the TGI (SF-539 CNS) was > 100 µM and the TGI (MALME-3M melanoma) was > 100 µM.
